System: RA patients
Experiment: Total cholesterol determination, Study 2 (RA patients, monotherapy with Compound 1)
Format: in vivo, human
Description: Randomized, double-blind, placebo-controlled, multicenter, phase IIb dose finding study of Compound 1 (dosed as a [Compound 1:HCl:3H2O]) administered for 24 weeks as monotherapy to subjects with moderately to severely active rheumatoid arthritis who have an inadequate response to methotrexate alone
Double-blind, placebo-controlled, monotherapy study in subjects with moderately to severely active RA who have an inadequate response to methotrexate (MTX) (oral or parenteral).
280 subjects randomized to one of 3 doses of Compound 1 (dosed as a [Compound 1:HCl:3H2O]) or to placebo, given once daily (q.d.).
Twelve weeks of treatment with Compound 1 (dosed as a [Compound 1:HCl:3H2O]) at 50 mg, 100 mg, or 200 mg q.d.; or placebo. At Week 12, all subjects on placebo and the subjects on the 50 mg dose who have not achieved 20% improvement in swollen joint count (SJC66) and tender joint count (TJC68) will be assigned to 100 mg q.d. in a blinded fashion and will continue treatment until Week 24. Subjects in the other groups will maintain their randomized treatment until Week 24.
This method is based on the determination of Δ^4 cholestenone after enzymatic cleavage of the cholesterol ester by cholesterol esterase, conversion of cholesterol by cholesterol oxidase, and subsequent measurement by the Trinder reaction of the hydrogen peroxide formed (Allain et al., 1974).
Cholesterol esters are cleaved by the action of cholesterol esterase to yield free cholesterol and fatty acids. Cholesterol oxidase then catalyzes the oxidation of cholesterol to cholest-4-en-3-one and hydrogen peroxide. In the presence of peroxidase, the hydrogen peroxide formed effects the oxidative coupling of phenol and 4-aminophenazone to form a red quinone-imine dye. The color intensity of the dye formed is directly proportional to the cholesterol concentration. It is determined by measuring the increase in absorbance.
Human serum and plasma samples cholesterol determination was done on a Roche/Hitachi Cobas c 701/702 system which automatically calculate the analyte concentration of each sample.

[1] = placebo switching to 100 mg q.d. at week 12, week 16
[2] = placebo switching to 100 mg q.d. at week 12, week 20
[3] = placebo switching to 100 mg q.d. at week 12, week 24

Structure (SMILES): O=C(Nc1nc2cccc(-c3ccc(CN4CCS(=O)(=O)CC4)cc3)n2n1)C1CC1 [Compound 1, cyclopropanecarboxylic acid {5-[4-(1,1-dioxo-thiomorpholin-4-ylmethyl)-phenyl]-[1,2,4]triazolo[1,5-a]pyridin-2yl}-amide]
- [total cholesterol] Mean percentage CFB - 24 weeks results (200 mg q.d., week 4): 9.35%
- [total cholesterol] Median percentage CFB - 24 weeks results (200 mg q.d., week 4): 7.39%
- [total cholesterol] Mean percentage CFB - 12 weeks results (200 mg q.d., week 8): 9.62%
- [total cholesterol] Mean percentage CFB - 24 weeks results (200 mg q.d., week 8): 9.62%
- [total cholesterol] Median percentage CFB - 24 weeks results (200 mg q.d., week 8): 9.01%
- [total cholesterol] Mean percentage CFB - 12 weeks results (200 mg q.d., week 12): 13.12%
- [total cholesterol] Mean percentage CFB - 24 weeks results (200 mg q.d., week 12): 13.12%
- [total cholesterol] Median percentage CFB - 24 weeks results (200 mg q.d., week 12): 11.96%
- [total cholesterol] Mean percentage CFB - 24 weeks results (200 mg q.d., week 16): 11.40%
- [total cholesterol] Median percentage CFB - 24 weeks results (200 mg q.d., week 16): 8.36%
- [total cholesterol] Mean percentage CFB - 24 weeks results (200 mg q.d., week 20): 11.67%
- [total cholesterol] Median percentage CFB - 24 weeks results (200 mg q.d., week 20): 11.04%
- [total cholesterol] Mean percentage CFB - 24 weeks results (200 mg q.d., week 24): 12.83%
- [total cholesterol] Median percentage CFB - 24 weeks results (200 mg q.d., week 24): 9.81%
- [Total cholesterol] Median CFB (Study 2 12 weeks results, 50 mg q.d., week 1): 0.100 mmol/L
- [Total cholesterol] Median CFB (Study 2 12 weeks results, 50 mg q.d., week 2): 0.000 mmol/L
- [Total cholesterol] Median CFB (Study 2 12 weeks results, 50 mg q.d., week 4): 0.000 mmol/L
- [Total cholesterol] Median CFB (Study 2 12 weeks results, 50 mg q.d., week 8): 0.250 mmol/L
- [Total cholesterol] Median CFB (Study 2 12 weeks results, 50 mg q.d., week 12): 0.140 mmol/L
- [Total cholesterol] Median CFB (Study 2 12 weeks results, 100 mg q.d., week 1): 0.100 mmol/L
- [Total cholesterol] Median CFB (Study 2 12 weeks results, 100 mg q.d., week 2): 0.140 mmol/L
- [Total cholesterol] Median CFB (Study 2 12 weeks results, 100 mg q.d., week 4): 0.265 mmol/L
- [Total cholesterol] Median CFB (Study 2 12 weeks results, 100 mg q.d., week 8): 0.250 mmol/L
- [Total cholesterol] Median CFB (Study 2 12 weeks results, 100 mg q.d., week 12): 0.350 mmol/L
- [Total cholesterol] Median CFB (Study 2 12 weeks results, 200 mg q.d., week 1): 0.260 mmol/L
- [Total cholesterol] Median CFB (Study 2 12 weeks results, 200 mg q.d., week 2): 0.330 mmol/L
- [Total cholesterol] Median CFB (Study 2 12 weeks results, 200 mg q.d., week 4): 0.390 mmol/L
- [Total cholesterol] Median CFB (Study 2 12 weeks results, 200 mg q.d., week 8): 0.400 mmol/L
- [Total cholesterol] Median CFB (Study 2 12 weeks results, 200 mg q.d., week 12): 0.560 mmol/L
- [Total cholesterol] Median CFB (Study 2 24 weeks results, 50 mg q.d. non responders switching to 100 mg q.d. at week 12, week 1): 0.150 mmol/L
- [Total cholesterol] Median CFB (Study 2 24 weeks results, 50 mg q.d. non responders switching to 100 mg q.d. at week 12, week 2): 0.100 mmol/L
- [Total cholesterol] Median CFB (Study 2 24 weeks results, 50 mg q.d. non responders switching to 100 mg q.d. at week 12, week 4): 0.350 mmol/L
- [Total cholesterol] Median CFB (Study 2 24 weeks results, 50 mg q.d. non responders switching to 100 mg q.d. at week 12, week 8): 0.140 mmol/L
- [Total cholesterol] Median CFB (Study 2 24 weeks results, 50 mg q.d. non responders switching to 100 mg q.d. at week 12, week 12): 0.330 mmol/L
- [Total cholesterol] Median CFB (Study 2 24 weeks results, 50 mg q.d. non responders switching to 100 mg q.d. at week 12, week 16): 0.540 mmol/L
- [Total cholesterol] Median CFB (Study 2 24 weeks results, 50 mg q.d. non responders switching to 100 mg q.d. at week 12, week 20): 0.280 mmol/L
- [Total cholesterol] Median CFB (Study 2 24 weeks results, 50 mg q.d. non responders switching to 100 mg q.d. at week 12, week 24): 0.550 mmol/L
- [Total cholesterol] Median CFB (Study 2 24 weeks results, 50 mg q.d. responders, week 1): 0.020 mmol/L
- [Total cholesterol] Median CFB (Study 2 24 weeks results, 50 mg q.d. responders, week 2): -0.040 mmol/L
- [Total cholesterol] Median CFB (Study 2 24 weeks results, 50 mg q.d. responders, week 4): -0.030 mmol/L
- [Total cholesterol] Median CFB (Study 2 24 weeks results, 50 mg q.d. responders, week 8): 0.350 mmol/L
- [Total cholesterol] Median CFB (Study 2 24 weeks results, 50 mg q.d. responders, week 12): 0.060 mmol/L
- [Total cholesterol] Median CFB (Study 2 24 weeks results, 50 mg q.d. responders, week 16): 0.165 mmol/L
- [Total cholesterol] Median CFB (Study 2 24 weeks results, 50 mg q.d. responders, week 20): 0.215 mmol/L
- [Total cholesterol] Median CFB (Study 2 24 weeks results, 50 mg q.d. responders, week 24): 0.250 mmol/L
- [Total cholesterol] Median CFB (Study 2 24 weeks results, 100 mg q.d., week 1): 0.100 mmol/L
- [Total cholesterol] Median CFB (Study 2 24 weeks results, 100 mg q.d., week 2): 0.140 mmol/L
- [Total cholesterol] Median CFB (Study 2 24 weeks results, 100 mg q.d., week 4): 0.265 mmol/L
- [Total cholesterol] Median CFB (Study 2 24 weeks results, 100 mg q.d., week 8): 0.250 mmol/L
- [Total cholesterol] Median CFB (Study 2 24 weeks results, 100 mg q.d., week 12): 0.350 mmol/L
- [Total cholesterol] Median CFB (Study 2 24 weeks results, 100 mg q.d., week 16): 0.400 mmol/L
- [Total cholesterol] Median CFB (Study 2 24 weeks results, 100 mg q.d., week 20): 0.400 mmol/L
- [Total cholesterol] Median CFB (Study 2 24 weeks results, 100 mg q.d., week 24): 0.445 mmol/L
- [Total cholesterol] Median CFB (Study 2 24 weeks results, 200 mg q.d., week 1): 0.260 mmol/L
- [Total cholesterol] Median CFB (Study 2 24 weeks results, 200 mg q.d., week 2): 0.330 mmol/L
- [Total cholesterol] Median CFB (Study 2 24 weeks results, 200 mg q.d., week 4): 0.390 mmol/L
- [Total cholesterol] Median CFB (Study 2 24 weeks results, 200 mg q.d., week 8): 0.400 mmol/L
- [Total cholesterol] Median CFB (Study 2 24 weeks results, 200 mg q.d., week 12): 0.560 mmol/L
- [Total cholesterol] Median CFB (Study 2 24 weeks results, 200 mg q.d., week 16): 0.410 mmol/L
- [Total cholesterol] Median CFB (Study 2 24 weeks results, 200 mg q.d., week 20): 0.490 mmol/L
- [Total cholesterol] Median CFB (Study 2 24 weeks results, 200 mg q.d., week 24): 0.565 mmol/L
- [Total cholesterol] Median CFB (Study 2 24 weeks results, placebo switching to 100 mg q.d. at week 12, week 16): 0.200 mmol/L
- [Total cholesterol] Median CFB (Study 2 24 weeks results, placebo switching to 100 mg q.d. at week 12, week 20): 0.220 mmol/L
- [Total cholesterol] Median CFB (Study 2 24 weeks results, placebo switching to 100 mg q.d. at week 12, week 24): 0.300 mmol/L
- [total cholesterol] Mean percentage CFB - 24 weeks results [1]: 5.14%
- [total cholesterol] Median percentage CFB - 24 weeks results [1]: 3.87%
- [total cholesterol] Mean percentage CFB - 24 weeks results [2]: 7.27%
- [total cholesterol] Median percentage CFB - 24 weeks results [2]: 5.09%
- [total cholesterol] Mean percentage CFB - 24 weeks results [3]: 6.98%
- [total cholesterol] Median percentage CFB - 24 weeks results [3]: 5.57%

— patent publication US10376520B2, “Methods for the treatment of cardiovascular disorders” (Galapagos NV, priority 2015, dated 2019)
